Experimental data taken from patent US9447039B2, “Indole carboxamide derivatives and uses thereof” (priority 2012, dated 2016).
In brackets after ≈: the same amount, converted by molar mass.

System: Mycobacterium tuberculosis H37Rv (ATCC #27294)
Assay: Minimum Inhibitory Concentration (MIC50) determination
Assay type: cell-based
Conditions: 120 h
Description: Mycobacterium tuberculosis H37Rv (ATCC #27294) (Mtb) strain was maintained in Middlebrook 7H9 broth medium supplemented with 0.05% Tween 80 and 10% ADS supplement. ADS supplement contains 5% bovine serum albumin fraction V. 2% D-dextrose and 0.8% of sodium chloride. Middlebrook 7H11 agar medium supplemented with 10% OADC (oleic acid, albumin, dextrose and catalase) was used as solid media for growing Mtb. Stock solutions of the compounds were prepared using 90% DMSO.
Minimum Inhibitory Concentration (MIC50) Determination
In Table 5 below, MIC50 is defined as the lowest concentration of the compound that inhibited 50% growth of the wild type strain compared to untreated controls. Test compounds were two or three fold serially diluted in duplicates and spotted by mosquito HTS to 384-well clear plates, resulting in 10 dilutions of each compound. A volume of 50 μl of Mtb culture (final OD600 of 0.02) was added to each well, and the assay plates were incubated at 37° C. for 5 days. Growth of bacteria was measured by reading absorbance at 600 nm using a Spectramax M2 spectrophotometer. MIC50 values were determined by using Activity Base software.

Work on `C[C@H]1CCCC[C@H]1NC(=O)c1cc2cc3c(cc2[nH]1)OCO3` [Example 4AP, N-((1R,2S)-2-Methylcyclohexyl)-5H-[1,3]dioxolo[4,5-f]indole-6-carboxamide] yielded an MIC50 of 2.13 µM (≈ 0.64 µg/mL).
`Cc1cc(Br)c2cc(C(=O)N[C@@H]3CCCC[C@@H]3C)[nH]c2c1` [Example 4AI, 4-Bromo-6-methyl-N-((1R,2S)-2-methylcyclohexyl)-1H-indole-2-carboxamide] was tested, and the MIC50 was 0.06 µM (≈ 0.021 µg/mL).
With `Cc1cc(C)c2cc(C(=O)NCCC(C)C)[nH]c2c1` [Example 3D, N-Isopentyl-4,6-dimethyl-1H-indole-2-carboxamide] the MIC50 was 3.26 µM (≈ 0.842 µg/mL).
Work on `CC1CCC(NC(=O)c2cc3c(F)cc(Cl)cc3[nH]2)CC1` (centres unmarked) [Example 4AS, 6-Chloro-4-fluoro-N-(4-methylcyclohexyl)-1H-indole-2-carboxamide] yielded an MIC50 of 0.23 µM (≈ 0.071 µg/mL).
`Cc1cc(C)c2cc(C(=O)Nc3ccc(C(C)C)cc3)[nH]c2c1` [Example 3A, N-(4-Isopropylphenyl)-4,6-dimethyl-1H-indole-2-carboxamide] was tested, and the MIC50 was 8.67 µM (≈ 2.66 µg/mL).
For `CCC(C)CNC(=O)c1cc2c(C)cc(C)cc2[nH]1` (centres unmarked) [Example 3I, 4,6-Dimethyl-N-(2-methylbutyl)-1H-indole-2-carboxamide], the MIC50 was 2.48 µM (≈ 0.641 µg/mL).
`Cc1cc(Br)cc2[nH]c(C(=O)N[C@@H]3CCCC[C@@H]3C)cc12` [Example 4AH, 6-Bromo-4-methyl-N-((1R,2S)-2-methylcyclohexyl)-1H-indole-2-carboxamide] was tested, and the MIC50 was 0.01 µM (≈ 0.00349 µg/mL).
Compound `CC1CCC(NC(=O)c2cc3ccc(Cl)cc3[nH]2)CC1` (centres unmarked) [Example 4V, 6-Chloro-N-(4-methylcyclohexyl)-1H-indole-2-carboxamide] has an MIC50 of 0.2 µM (≈ 0.0582 µg/mL).
Work on `N#Cc1ccc2cc(C(=O)NC3CCCCC3)[nH]c2c1` [Example 4AF, 6-Cyano-N-cyclohexyl-1H-indole-2-carboxamide] yielded an MIC50 of 2.27 µM (≈ 0.608 µg/mL).
For `Cc1cc(C)c2cc(C(=O)NC3CCCCC3C)[nH]c2c1` (centres unmarked) [Example 3H, 4,6-Dimethyl-N-(2-methylcyclohexyl)-1H-indole-2-carboxamide], the MIC50 was 0.32 µM (≈ 0.091 µg/mL).
Work on `CC1CCC(NC(=O)c2cc3c(C(F)(F)F)cc(C(F)(F)F)cc3[nH]2)CC1` (centres unmarked) [Example 4H, N-(4-Methylcyclohexyl)-4,6-bis(trifluoromethyl)-1H-indole-2-carboxamide] yielded an MIC50 of 0.32 µM (≈ 0.126 µg/mL).
With `C[C@H]1CC[C@@H](NC(=O)c2cc3c(Cl)cc(Cl)cc3[nH]2)CC1` [Example 4R, 4,6-Dichloro-N-(cis-4-methylcyclohexyl)-1H-indole-2-carboxamide] the MIC50 was 0.14 µM (≈ 0.0455 µg/mL).
For `Cc1cc(OCCN2CCOCC2)cc2[nH]c(C(=O)NC3CCCCC3)cc12` [Example 9A, N-Cyclohexyl-4-methyl-6-(2-morpholinoethoxy)-1H-indole-2-carboxamide], the MIC50 was 4.94 µM (≈ 1.9 µg/mL).
Work on `CC1CCC(NC(=O)c2cc3c(F)cc(F)cc3[nH]2)CC1` (centres unmarked) [Example 4F, 4,6-Difluoro-N-(4-methylcyclohexyl)-1H-indole-2-carboxamide] yielded an MIC50 of 0.37 µM (≈ 0.108 µg/mL).
`CC1CCC(NC(=O)c2cc3c(Cl)cccc3[nH]2)CC1` (centres unmarked) [Example 4Y, 4-Chloro-N-(4-methylcyclohexyl)-1H-indole-2-carboxamide] gave an MIC50 of 0.22 µM (≈ 0.064 µg/mL).
`O=C(NC1CCC(CO)CC1)c1cc2c(Cl)cc(Cl)cc2[nH]1` (centres unmarked) [Example 4AX, 4,6-Dichloro-N-(4-(hydroxymethyl)-cyclohexyl)-1H-indole-2-carboxamide] was tested, and the MIC50 was 13.5 µM (≈ 4.6 µg/mL).
Compound `CC1CCC(NC(=O)c2cc3c(Cl)cc(F)cc3[nH]2)CC1` (centres unmarked) [Example 4AT, 4-Chloro-6-fluoro-N-(4-methylcyclohexyl)-1H-indole-2-carboxamide] has an MIC50 of 0.165 µM (≈ 0.0509 µg/mL).
With `Cc1cc(C)c2cc(C(=O)N[C@H]3CCC[C@H](C)[C@H]3C)[nH]c2c1` [Example 4E, N-((1S,2R,3S)-2,3-Dimethylcyclohexyl)-4,6-dimethyl-1H-indole-2-carboxamide] the MIC50 was 0.08 µM (≈ 0.0239 µg/mL).
Compound `Cc1cc(C)c2cc(C(=O)NC3CCCCC3C(C)C)[nH]c2c1` (centres unmarked) [Example 4O, N-(2-Isopropylcyclohexyl)-4,6-dimethyl-1H-indole-2-carboxamide] has an MIC50 of 0.765 µM (≈ 0.239 µg/mL).
In the case of `COc1cc2cc(C(=O)N[C@@H]3CCCC[C@@H]3C)[nH]c2cc1OC` [Example 4AQ, 5,6-Dimethoxy-N-((1R,2S)-2-methylcyclohexyl)-1H-indole-2-carboxamide], the MIC50 is reported as 19.5 µM (≈ 6.17 µg/mL).
In the case of `Cc1ccc2cc(C(=O)N[C@@H]3CCCC[C@@H]3C)[nH]c2c1` [Example 4Z, 6-Methyl-N-((1R,2S)-2-methylcyclohexyl)-1H-indole-2-carboxamide], the MIC50 is reported as 0.36 µM (≈ 0.0973 µg/mL).
With `Cc1cc(C)c2cc(C(=O)Nc3ccc(Cl)cc3)[nH]c2c1` [Example 3B, N-(4-Chlorophenyl)-4,6-dimethyl-1H-indole-2-carboxamide] the MIC50 was 2.95 µM (≈ 0.881 µg/mL).
With `COC1CCCCC1NC(=O)c1cc2c(C)cc(C)cc2[nH]1` (centres unmarked) [Example 4N, N-(2-Methoxycyclohexyl)-4,6-dimethyl-1H-indole-2-carboxamide] the MIC50 was 5.78 µM (≈ 1.74 µg/mL).
With `O=C(NC1CCC(C(F)(F)F)CC1)c1cc2c(Cl)cc(Cl)cc2[nH]1` (centres unmarked) [Example 5A, 4,6-Dichloro-N-(4-(trifluoromethyl)-cyclohexyl)-1H-indole-2-carboxamide] the MIC50 was 0.305 µM (≈ 0.116 µg/mL).
`C[C@H]1CCCC[C@H]1NC(=O)c1cc2c(C#N)cccc2[nH]1` [Example 4AD, 4-Cyano-N-((1R,2S)-2-methylcyclohexyl)-1H-indole-2-carboxamide] was tested, and the MIC50 was 0.76 µM (≈ 0.214 µg/mL).
Compound `Cc1cc(C)c2cc(C(=O)N[C@@H]3CCC[C@@H]3C)[nH]c2c1` [Example 4K, 4,6-Dimethyl-N-((1R,2S)-2-methylcyclopentyl)-1H-indole-2-carboxamide] has an MIC50 of 0.69 µM (≈ 0.187 µg/mL).
For `CC1(C)CCC(NC(=O)c2cc3c(F)cc(F)cc3[nH]2)CC1` [Example 2A, N-(4,4-Dimethylcyclohexyl)-4,6-difluoro-1H-indole-2-carboxamide], the MIC50 was 0.023 µM (≈ 0.00705 µg/mL).
`CCNc1cc(C)c2cc(C(=O)N[C@@H]3CCCC[C@@H]3C)[nH]c2c1` [Example 6D, 6-(Ethylamino)-4-methyl-N-((1R,2S)-2-methylcyclohexyl)-1H-indole-2-carboxamide] showed an MIC50 of 4.86 µM (≈ 1.52 µg/mL).
`C[C@H]1CC[C@H](NC(=O)c2cc3c(Cl)cc(Cl)cc3[nH]2)CC1` [Example 4S, 4,6-Dichloro-N-(trans-4-methylcyclohexyl)-1H-indole-2-carboxamide] showed an MIC50 of 0.14 µM (≈ 0.0455 µg/mL).
With `C[C@H]1CCCC[C@H]1NC(=O)c1cc2c(C(F)(F)F)cc(C(F)(F)F)cc2[nH]1` [Example 4BC, N-((1R,2S)-2-Methylcyclohexyl)-4,6-bis(trifluoromethyl)-1H-indole-2-carboxamide] the MIC50 was 1.6 µM (≈ 0.628 µg/mL).
With `C[C@H]1CCCC[C@H]1NC(=O)c1cc2ccc(F)cc2[nH]1` [Example 4AZ, 6-Fluoro-N-((1R,2S)-2-methylcyclohexyl)-1H-indole-2-carboxamide] the MIC50 was 1.35 µM (≈ 0.37 µg/mL).
For `C[C@H]1CCCC[C@H]1NC(=O)c1cc2ccc(Br)cc2[nH]1` [Example 4AC, 6-Bromo-N-((1R,2S)-2-methylcyclohexyl)-1H-indole-2-carboxamide], the MIC50 was 0.5 µM (≈ 0.168 µg/mL).
In the case of `CC1(C)CCC(NC(=O)c2cc3c(Cl)cc(Cl)cc3[nH]2)CC1` [Example 1A, 4,6-dichloro-N-(4,4-dimethylcyclohexyl)-1H-indole-2-carboxamide], the MIC50 is reported as 0.015 µM (≈ 0.00509 µg/mL).
`CC1CCC(NC(=O)c2cc3cccc(Cl)c3[nH]2)CC1` (centres unmarked) [Example 4X, 7-Chloro-N-(4-methylcyclohexyl)-1H-indole-2-carboxamide] was tested, and the MIC50 was 0.9 µM (≈ 0.262 µg/mL).
With `COc1ccc2cc(C(=O)N[C@@H]3CCCC[C@@H]3C)[nH]c2c1` [Example 4AM, 6-Methoxy-N-((1R,2S)-2-methylcyclohexyl)-1H-indole-2-carboxamide] the MIC50 was 6.19 µM (≈ 1.77 µg/mL).
Compound `COCC1CCC(NC(=O)c2cc3c(Cl)cc(Cl)cc3[nH]2)CC1` (centres unmarked) [Example 8A, 4,6-Dichloro-N-(4-(methoxymethyl)cyclohexyl)-1H-indole-2-carboxamide] has an MIC50 of 1.51 µM (≈ 0.536 µg/mL).
Compound `O=C(NC1CCC(F)(F)CC1)c1cc2c(Cl)cc(Cl)cc2[nH]1` [Example 4P, 4,6-Dichloro-N-(4,4-difluorocyclohexyl)-1H-indole-2-carboxamide] has an MIC50 of 0.565 µM (≈ 0.196 µg/mL).
`COc1ccc2[nH]c(C(=O)N[C@@H]3CCCC[C@@H]3C)cc2c1` [Example 4AR, 5-Methoxy-N-((1R,2S)-2-methylcyclohexyl)-1H-indole-2-carboxamide] was tested, and the MIC50 was 7.53 µM (≈ 2.16 µg/mL).
